Source: patent US9174979B2, “Phenanthroindolizidine compound and NFκB inhibitor containing same as active ingredient” (KABUSHIKI KAISHA YAKULT HONSHA, priority 2008, dated 2015)
Marks after values point to notes of the source that are not given here.

Columns and labels:
NFκB = NFκB luciferase reporter assay in SW480/NRE-Luc cells stimulated with TNFα; format: cell-based, human; details: for IC50: Homo sapiens, SW480, read-out: NFκB inhibitory activity IC50
From the text: (§1) The action of the phenanthroindolizidine alkaloid compound of the present invention on the NFκB activity was studied in a luciferase assay. Human colon cancer SW480 cells were transfected with pNFκB-Luc Plasmid (Stratagene), which is a reporter vector in which a five-time tandem repeat of the NFκB responsive element (NRE) is integrated into the upstream of the luciferase gene, using Lipofectamine 2000 (Invitrogen Corporation) in accordance with the attached operating procedure. Subsequently, the cells were cultured in an RPMI1640 medium containing 10% FBS, 100 U/mL penicillin, 100 μg/mL streptomycin, and 0.5 mg/mL G418 to produce SW480 cells having the luciferase gene, the expression of which is regulated by NRE, stably introduced therein (SW480/NRE-Luc cells). Likewise, SW480 cells were transfected with pGL3-Control Vector (Promega Corporation), which is a reporter vector in which the SV40 promoter is integrated into the upstream of the luciferase gene, to produce SW480 cells having the luciferase gene, the expression of which is regulated by the SV40 promoter, stably introduced therein (SW480/SV40-Luc cells). The SW480/NRE-Luc cells or the SW480/SV40-Luc cells were suspended in an RPMI1640 medium containing 10% FBS, 100 U/mL penicillin, and 100 μg/mL streptomycin (10% FBS/RPMI1640), and then seeded in a 96-well microplate, followed by culturing under conditions of 5% CO2 and at 37° C. (5000 cells/well). After an overnight culture, the compound of the present invention was added, followed by culturing for one hour. Further, 50 ng/mL TNFα (Sigma-Aldrich Corporation) was added, followed by culturing for four hours. Subsequently, a Steady-Glo Luciferase Assay reagent (Promega Corporation) was added, and the luminescent intensity was detected by SpectraMax M5e (Molecular Devices, Inc.) to measure the intracellular luciferase activity. It is to be noted that the action of the compound of the present invention on the NFκB activity or the SV40 promoter activity was shown as IC50 values (the concentration of a test compound needed for 50% inhibition of the induction of the luciferase expression).

SV40 promoter = SV40 promoter luciferase reporter assay in SW480/SV40-Luc cells; format: cell-based, human; details: for IC50: Homo sapiens, SW480, read-out: SV40 promoter inhibitory activity IC50
From the text: as §1

[1] = tested on: human colon cancer SW480 cells; assay: Inhibitory action on the proliferation of SW480 cells; format: cell-based; details: 48 hours culture, TetraColor ONE; for IC50: Homo sapiens, SW480
Method: (§2) The action of the phenanthroindolizidine alkaloid compound of the present invention on the proliferation of human colon cancer SW480 cells, HT-29 cells, and human non-small cell lung cancer A549 cells was studied. The SW480 cells were suspended in a 10% FBS/RPMI1640 and then seeded in a 96-well microplate, followed by culturing in 5% CO2 at 37° C. (2000 cells/well). The A549 cells and the HT-29 cells were each suspended in a DMEM medium containing 10% FBS, 100 U/mL penicillin, and 100 μg/mL streptomycin (10% FBS/DMEM) and a DMEM F-12 HAM medium containing 10% FBS, 100 U/mL penicillin, and 100 μg/mL streptomycin (10% FBS/DMEM F12 HAM), and then seeded in 96-well microplates, followed by culturing in 5% CO2 at 37° C. (1000 cells/well). After an overnight culture, the compound of the present invention was added, followed by further culturing for 48 hours (SW480 cells) and 96 hours (A549 cells and HT-29 cells). After culturing, the number of viable cells was counted using TetraColor ONE (Seikagaku Corporation) in accordance with the attached operating procedure. The results were expressed as the concentration of a test compound needed for 50% inhibition of the proliferation of the cells (IC50).

[2] = tested on: human colon cancer HT-29 cells; assay: Inhibitory action on the proliferation of HT-29 cells; format: cell-based; details: 96 hours culture, TetraColor ONE; for IC50: Homo sapiens, HT-29
Method: as §2

[3] = tested on: human non-small cell lung cancer A549 cells; assay: Inhibitory action on the proliferation of A549 cells; format: cell-based; details: 96 hours culture, TetraColor ONE; for IC50: Homo sapiens, A549
Method: as §2

mice = assay: Animal toxicity test in mice transplanted with Meth A cells; format: in vivo, mouse; details: intravenous on days 1, 5, 9, observed for three weeks
Method: Also, the toxicity of known phenanthroindolizidine alkaloid compounds in mice, namely (12aS,13S)-6,7-dimethoxy-9,10,11,12,12a,13-hexahydro-9a-aza-cyclopenta[b]triphenylene-3,13-diol (known compound 1; refer to WO01/023384) and (12aS,13S)-3,6,7-trimethoxy-9,10,11,12,12a,13-hexahydro-9a-aza-cyclopenta[b]triphenylene-13-ol (known compound 2; refer to Planta Med., 2002, 68: 186-188), was simultaneously studied. To a control group, a physiological saline solution as a solvent, was administered.

[4] = Measurement of solubility; details: saline or isotonic
From the text: In in vivo studies, the phenanthroindolizidine alkaloid compounds were used in the form of a salt.

[5] = tested on: mouse fibrosarcoma Meth A cells; assay: Antitumor effect in mice transplanted with mouse fibrosarcoma Meth A cells; format: in vivo; details: intravenous on days 1, 5, 9, BALB/c mice, tumor weight on day 21
Method: The antitumor effect of the phenanthroindolizidine alkaloid compound of the present invention in vivo was studied using mice transplanted with mouse fibrosarcoma Meth A cells. Meth A cells were transplanted subcutaneously in the inguinal region of male 7-week-old BALB/c mice (2.5×10^5 cells/mouse). Subsequently, on days 1, 5, and 9, the compound of the present invention was intravenously administered. To a control group, physiological saline as a solvent, was administered. On day 21 after the cell transplantation, tumor was excised and measured for its weight, and subsequently a tumor growth-inhibition rate IR (%) was obtained by the following formula. Tumor growth-inhibition rate IR(%)=(1−the weight of the tumor in an administration group/the weight of the tumor in a control group)×100

[6] = tested on: mice with TPA-induced ear edema; assay: Anti-inflammatory effect in mice with TPA-induced ear edema; format: in vivo, mouse; details: intraperitoneal, 30 minutes before TPA 5 μg/ear; ICR mice; four hours after TPA
Method: The anti-inflammatory effect of the phenanthroindolizidine alkaloid compound of the present invention in vivo was studied using mice with phorbol 12-myristate 13-acetate (TPA)-induced ear edema. Compound 11, a compound of the present invention, was intraperitoneally administered to male 6-week-old ICR mice, and after 30 minutes, TPA (Sigma-Aldrich Corporation) dissolved in acetone was applied to the front and back of the right ear of the mice (5 μg/ear). Four hours after application of TPA, the thickness of the auricle was measured by a dial thickness gauge (Ozaki Mfg Co. Ltd.). A control group was administered with a 5% glucose solution as a solvent.

[7] = tested on: human colon cancer HCT116 cells; assay: Antitumor effect in mice transplanted with human colon cancer HCT116 cells; format: in vivo; details: intraperitoneal on days 1 to 5 and 8 to 12, BALB/c nude mice, tumor weight on day 21
From the text: The antitumor effect of the phenanthroindolizidine alkaloid compound of the present invention in vivo was studied using mice transplanted with human colon cancer HCT116 cells. HCT116 cells were transplanted subcutaneously in the inguinal region of male 6-week-old BALB/c nude mice (2×10^6 cells/mouse). On days 1 to 5 and on days 8 to 12 after the time at which the estimated tumor volume obtained by 1/2ab^2 (a and b indicate the major axis and the minor axis of tumor, respectively) reached approximately 100 mm^3 (day 0), the compound of the present invention was administered (intraperitoneal administration). To a control group, a 5% glucose solution as a solvent, was administered. On day 21, tumor was excised and measured for its weight, and subsequently a tumor proliferation-inhibition rate IR (%) was calculated.

Molecule | IC50 (NFκB) | IC50 (SV40 promoter) | IC50 [1] | IC50 [2] | IC50 [3] | Mortality rate (mice; total dose 25 mg/kg) | Mortality rate (mice; total dose 50 mg/kg) | NFκB inhibitory activity IC50 (NFκB; SW480/NRE-Luc cells, 50 ng/mL TNFα, luciferase expression) | SV40 promoter inhibitory activity IC50 (SV40 promoter; SW480/SV40-Luc cells, luciferase expression) | SW480 proliferation inhibitory action IC50 [1] | HT-29 proliferation inhibitory action IC50 [2] | A549 proliferation inhibitory action IC50 [3] | solubility [4] | Tumor growth inhibition rate IR ([5]; total dose 25 mg/kg) | Tumor growth inhibition rate IR ([5]; total dose 50 mg/kg) | Anti-inflammatory effect (thickness of the auricle) [6] | Tumor growth inhibition rate IR ([7]; total dose 100 mg/kg) | Tumor growth inhibition rate IR ([7]; total dose 200 mg/kg)
COc1cc2c3c(c4ccc(O)cc4c2cc1OC)C(O)C1(C)CCCN1C3.Cl (stereo not drawn) [Compound 6, 6,7-dimethoxy-12a-methyl-9,10,11,12,12a,13-hexahydro-9a-aza-cyclopenta[b]triphenylene-3,13-diol hydrochloride] | 1920 ng/mL | > 10000 ng/mL | 3120 ng/mL | 839 ng/mL | 757 ng/mL | 0/5 | 0/5 |  |  |  |  |  |  |  |  |  |  | 
Cl.Oc1ccc2c3c(c4cc5c(cc4c2c1)OCO5)CN1CCC[C@H]1[C@H]3O [Compound 8, (12aS,13S)-6,7-methylenedioxy-9,10,11,12,12a,13-hexahydro-9a-aza-cyclopenta[b]triphenylene-3,13-diol hydrochloride] | 8.4 ng/mL | > 10000 ng/mL | 26.7 ng/mL | 46.9 ng/mL | 19.3 ng/mL | 0/5 | 0/5 |  |  |  |  |  |  |  |  |  |  | 
CC1(C)Oc2cc3c4c(c5ccc(O)cc5c3cc2O1)[C@H](O)[C@@H]1CCCN1C4.Cl [Compound 9, (12aS,13S)-6,7-isopropylidenedioxy-9,10,11,12,12a,13-hexahydro-9a-aza-cyclopenta[b]triphenylene-3,13-diol hydrochloride] |  |  |  |  |  | 0/5 | 0/5 | 521.6 ng/mL | >10000 ng/mL | 1955.0 ng/mL | 184.0 ng/mL | 350.2 ng/mL |  |  |  |  |  | 
CCOc1cc2c3c(c4ccc(O)cc4c2cc1OCC)[C@H](O)[C@@H]1CCCN1C3.Cl [Compound 10, (12aS,13S)-6,7-diethoxy-9,10,11,12,12a,13-hexahydro-9a-aza-cyclopenta[b]triphenylene-3,13-diol hydrochloride] | 4.1 ng/mL | > 100 ng/mL | 6.7 ng/mL | 0.47 ng/mL | 0.27 ng/mL | 0/5 | 0/5 |  |  |  |  |  |  |  |  |  |  | 
COc1cc2c3c(c4ccc(O)cc4c2cc1OC)C[C@@H]1CCCN1C3.Cl [Compound 11, (S)-6,7-dimethoxy-9,10,11,12,12a,13-hexahydro-9a-aza-cyclopenta[b]triphenylene-3-ol hydrochloride] | 1.2 ng/mL | > 10 ng/mL | 3.8 ng/mL | 0.62 ng/mL | 0.024 ng/mL | 0/5 | 0/5 |  |  |  |  |  | 4000 µg/mL | 52.1** % | 64.6** % | inhibiting TPA-induced ear edema in a dose-dependent manner |  | 
COc1cc2c3c(c4ccc(O)cc4c2cc1OC)C[C@H]1CCCN1C3.Cl [Compound 12, (R)-6,7-dimethoxy-9,10,11,12,12a,13-hexahydro-9a-aza-cyclopenta[b]triphenylene-3-ol hydrochloride] | 18.1 ng/mL | > 10000 ng/mL | 50.4 ng/mL | 50.4 ng/mL | 12.7 ng/mL | 0/5 | 0/5 |  |  |  |  |  |  | 25.3% | 58.8** % |  |  | 
Cl.Oc1ccc2c3c(c4cc5c(cc4c2c1)OCO5)CN1CCC[C@H]1C3 [Compound 13, (S)-6,7-methylenedioxy-9,10,11,12,12a,13-hexahydro-9a-aza-cyclopenta[b]triphenylene-3-ol hydrochloride] | 48.4 ng/mL | > 10000 ng/mL | 38.7 ng/mL | 260 ng/mL | 48.2 ng/mL | 0/5 | 0/5 |  |  |  |  |  |  | 45.6* % | 31.5% |  |  | 
COc1cc2c3c(c4ccc(O)cc4c2cc1OC)CN1CCC[C@H]1[C@H]3O.Cl [Compound 15, (12aS,13S)-2,3-dimethoxy-9,10,11,12,12a,13-hexahydro-9a-aza-cyclopenta[b]triphenylene-6,13-diol hydrochloride] | 2 ng/mL | > 10000 ng/mL | 4.2 ng/mL | 56.6 ng/mL | 34 ng/mL | 0/5 | 0/5 |  |  |  |  |  |  |  |  |  |  | 
(S)-6,7-dimethoxy-9,10,11,12,12a,13-hexahydro-9a-aza-cyclopenta[b]triphenylene-3-ol methanesulfonate [Compound 16] |  |  |  |  |  |  |  |  |  |  |  |  |  |  |  |  | 35.7*** % | 48.7*** %
